Test system: PAECs
Experiment: PAEC attachment and morphology after 24 hours on discs surface modified with peptides (FIGS. 8A-10G, FIJI analysis)
Format: cell-based
Conditions: 24 hours after seeding, surface modification at 2 μmol/cm^2 and 0.2 μmol/cm^2 (Tests 1-3)
Description: For the experiments in FIGS. 7A-7S, 18 multi-wells were washed in 70% RA. The multi-wells were split into 6 groups of surface modification, which were P/G/A/B/F, PHSRNKRGD (SEQ ID NO: 9) (referred to as “PHK” in the figures), AG73, GFOGER (SEQ ID NO: 10), BM-Binder, and FN-Binder. Surface modification was conducted with the peptide solutions in Table 4. Peptides were prepared at 2 μmol/cm^2 concentrations for surface modification, but the actual concentration was adjusted for the thiol concentration. Following surface modification, wells were seeded with PAECs at a concentration of 625000 per cm^2. 24 hours after seeding, the wells were fix stained and imaged to quantify cell morphology. Model surface area was 10.1 cm^2.
FIGS. 8A-10G provide data on experiments to compare cell seeding and proliferation on surfaces with single peptide or combination peptide modification at different concentrations, 2 μmol/cm^2 and 0.2 μmol/cm^2. The solutions used for peptide modification had the actual peptide concentrations noted in Table 5.
FIGS. 8A-8G illustrate PAEC morphology after 24 hours on discs surface modified with various peptides at 2 μmol/cm^2 concentration according to Test 1. FIG. 8A are stained disk scans of PAECs cultured on 6 different surface modification peptides. FIGS. 8B-8G are graphs of FIJI analysis of circularity frequency distribution.
FIGS. 9A-9G illustrate PAEC morphology after 24 hours on discs surface modified with various peptides at 2 μmol/cm^2 concentration adjusted to the volume used in the PGABF′ condition according to Test 2. FIG. 9A are stained disk scans of PAECs cultured on 6 different surface modification peptides. FIGS. 9B-9G are graphs of FIJI analysis of circularity frequency distribution.
FIGS. 10A-10G illustrate PAEC morphology after 24 hours on discs surface modified with various peptides at 0.2 μmol/cm^2 concentration according to Test 3. FIG. 10A are stained disk scans of PAECs cultured on 6 different surface modification peptides. […] FIJI analysis is a method of quantifying stained disk scans. […]

| Sequence | Cell attachment and morphology |
| --- | --- |
| GCREKKTLQPVYEYMVGV [F] | little cell attachment and those that were attached were round with little to no elongation |
| GCREISAFLGIPFAEPPMGPRRFLPPEPKKP [B] | little cell attachment and those that were attached were round with little to no elongation |
| GCREKKRKRLQVQLSIRT [A, laminin-derived peptide recognized by syndecans] | some cells that were elongated but that did not have full stretching as seen in other test conditions, and an increase in rounder cells |

From US20240318143A1, “POST-PROCESSING OF BIOLOGICAL SCAFFOLDS” (Lung Biotechnology PBC, priority 2023, published 2024)
